Assay results reported in patent US20070184519A1, “Peptides, polypeptides, and proteins of reduced immunogenicity and methods for their production” (priority 2003, published 2007).
Like-named read-outs stand apart in the source and are kept apart here. One block for each molecule: values may come before it. Ends that are not written are not given here.

Experiments:
DRB3*0101 = target: T1, DRB3*0101 (Homo sapiens, UniProt P01903+P79483); assay: Class II peptide-binding assay DRB3*0101 (DR52a)
T1 construct: expressed in transfected cells; host or cells: transfected fibroblasts TR81.19

DRB4*0101 = target: T2, DRB4*0101 (Homo sapiens, UniProt P01903+P13762, G164S); assay: Class II peptide-binding assay DRB4*0101 (DRw53)
T2 construct: expressed in transfected cells; host or cells: transfected fibroblasts L257.6

DRB5*0101 = target: T3, DRB5*0101 (Homo sapiens, UniProt P01903+Q30154); assay: Class II peptide-binding assay DRB5*0101 (DR2w2a)
T3 construct: Epstein-Barr virus (EBV) transformed homozygous cell lines were used as sources of human HLA Class II molecules; endogenous in cells; host or cells: GM3107 (EBV-transformed homozygous B cell line)

DRB1*0404 = target: T4, DRB1*0404 (Homo sapiens, UniProt P01903+P01911, A100R/A169T/F76Y/I96L/K127E/L162R/M171V/N62H/P40V/Q125Y/R42H/S133A/S149N/S66Y/V209L/W38E); assay: Class II peptide-binding assay DRB1*0404 (DR4w14)
T4 construct: Epstein-Barr virus (EBV) transformed homozygous cell lines were used as sources of human HLA Class II molecules; endogenous in cells; host or cells: BIN40 (EBV-transformed homozygous B cell line)

DRB1*1101 = target: T5, DRB1*1101 (Homo sapiens, UniProt P01903+P01911, A100R/A169T/A87E/I96F/K41T/L162R/M171V/P40S/Q125H/Q178H/Q39Y/Q99D/R42S/S66Y/T262R/V115G/W38E); assay: Class II peptide-binding assay DRB1*1101 (DR5w11)
T5 construct: Epstein-Barr virus (EBV) transformed homozygous cell lines were used as sources of human HLA Class II molecules; endogenous in cells; host or cells: SWEIG (EBV-transformed homozygous B cell line)

DRB1*0401 = target: T6, DRB1*0401 (Homo sapiens, UniProt P01903+P01911, A100K/A169T/F76Y/I96L/K127E/L162R/M171V/N62H/P40V/Q125Y/R42H/S133A/S149N/S66Y/V115G/V209L/W38E); assay: Class II peptide-binding assay DRB1*0401 (DR4w4)
T6 construct: Epstein-Barr virus (EBV) transformed homozygous cell lines were used as sources of human HLA Class II molecules; endogenous in cells; host or cells: PREISS (EBV-transformed homozygous B cell line)

DRB1*0802 = target: T7, DRB1*0802 (Homo sapiens, UniProt P01903+P01911, A100R/A103L/A169T/F76Y/H45Y/I96F/K41T/L162R/M171V/P40S/Q125H/Q178H/Q39Y/Q99D/R218S/R42G/S66Y/V115G/W38E); assay: Class II peptide-binding assay DRB1*0802 (DR8w2)
T7 construct: Epstein-Barr virus (EBV) transformed homozygous cell lines were used as sources of human HLA Class II molecules; endogenous in cells; host or cells: OLL (EBV-transformed homozygous B cell line)

DRB1*0301 = target: T8, DRB1*0301 (Homo sapiens, UniProt P01903+P01911, A100K/A102G/A103R/A169T/F55Y/I96L/K41T/L162R/M171V/P40S/Q125H/Q178H/Q39Y/R42S/S66N/T106N/T262R/W38E/Y61H); assay: Class II peptide-binding assay DRB1*0301 (DR3)
T8 construct: Epstein-Barr virus (EBV) transformed homozygous cell lines were used as sources of human HLA Class II molecules; endogenous in cells; host or cells: MAT (EBV-transformed homozygous B cell line)

DRB1*0101 = target: T9, DRB1*0101 (Homo sapiens, UniProt P01903+P01911, A100R/D57E/F55L/F60I/F76Y/I96L/L162R/M171V/P40L/Q125E/R42F/V115G/Y59C); assay: Class II peptide-binding assay DRB1*0101 (DR1)
T9 construct: Epstein-Barr virus (EBV) transformed homozygous cell lines were used as sources of human HLA Class II molecules; endogenous in cells; host or cells: LG2 (EBV-transformed homozygous B cell line)

DRB1*0701 = target: T10, DRB1*0701 (Homo sapiens, UniProt P01903+P01911, A100R/A102G/A103Q/D57E/D86V/E43K/F76Y/K127E/L162R/M171V/P40G/Q125H/Q99D/R33Q/R42Y/R54Q/S133A/S66F/T210M/V115G/Y107V/Y59L/Y89S); assay: Class II peptide-binding assay DRB1*0701 (DR7); conditions: known HLA-DR and DQ restricted epitopes, Table 6
T10 construct: Epstein-Barr virus (EBV) transformed homozygous cell lines were used as sources of human HLA Class II molecules; endogenous in cells; host or cells: PITOUT (EBV-transformed homozygous B cell line)

DRB1*1302 = target: T11, DRB1*1302 (Homo sapiens, UniProt P01903+P01911, A100E/A169T/K41T/L162R/M171V/P40S/Q125H/Q178H/Q39Y/Q99D/R42S/S66N/T262R/V115G/W38E/Y61H); assay: Class II peptide-binding assay DRB1*1302 (DR6w19)
T11 construct: Epstein-Barr virus (EBV) transformed homozygous cell lines were used as sources of human HLA Class II molecules; endogenous in cells; host or cells: HO301 / H0301 (EBV-transformed homozygous B cell line)

DRB1*0405 = target: T12, DRB1*0405 (Homo sapiens, UniProt P01903+P01911, A100R/A169T/D86S/F76Y/I96L/K127E/L162R/M171V/N62H/P40V/Q125Y/R42H/S133A/S149N/S66Y/V115G/V209L/W38E); assay: Class II peptide-binding assay DRB1*0405 (DR4w15)
T12 construct: Epstein-Barr virus (EBV) transformed homozygous cell lines were used as sources of human HLA Class II molecules; endogenous in cells; host or cells: KT3 (EBV-transformed homozygous B cell line)

[1] = known HLA-DR and DQ restricted epitopes, Table 6

T5 sequence (P01903 26-254, other chains not shown): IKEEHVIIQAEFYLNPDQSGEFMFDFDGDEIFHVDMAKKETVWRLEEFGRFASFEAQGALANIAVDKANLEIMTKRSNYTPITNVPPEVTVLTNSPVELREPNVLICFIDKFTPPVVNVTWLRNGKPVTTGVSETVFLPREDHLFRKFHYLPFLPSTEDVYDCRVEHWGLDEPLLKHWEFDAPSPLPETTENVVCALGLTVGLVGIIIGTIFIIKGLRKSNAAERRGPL
T11 sequence (P01903 26-254, other chains not shown): as above
T8 sequence (P01903 26-254, other chains not shown): as above

Molecule: YKTIAYDEEARR
IC50 (DRB3*0101): > 20000 nM | IC50 (DRB4*0101): > 20000 nM | IC50 (DRB5*0101): > 20000 nM

IC50 (DRB3*0101; IFNb 15-mer peptides, Table 5D): 6780 nM
Molecule: LWQLNGRLEYCLKDR

IC50 (DRB1*0404): 151 nM | IC50 (DRB1*1101): 10 nM
Molecule: CC(C)C[C@H](NC(=O)[C@H](Cc1ccccc1)NC(=O)[C@H](CC(N)=O)NC(=O)[C@H](CO)NC(=O)[C@H](Cc1ccc(O)cc1)NC(=O)[C@@H](NC(=O)[C@H](CCCNC(=N)N)NC(=O)[C@H](Cc1ccccc1)NC(=O)CNC(=O)[C@H](CCCCN)NC(=O)[C@H](CCCNC(=N)N)NC(=O)[C@H](Cc1ccccc1)NC(=O)[C@@H](NC(=O)[C@@H](N)CC(=O)O)[C@@H](C)O)C(C)C)C(=O)N[C@@H](CCCNC(=N)N)C(=O)O

IC50 (DRB1*0401): 24 nM | IC50 (DRB1*0802): 75 nM | IC50 (DRB1*0301): 11500 nM | IC50 (DRB4*0101): 1390 nM | IC50 (DRB1*1101): 3.6 nM | IC50 (DRB1*0101): 85 nM
Molecule: CC(C)C[C@H](NC(=O)[C@H](CC(=O)O)NC(=O)[C@H](CC(N)=O)NC(=O)[C@H](CO)NC(=O)[C@H](Cc1ccc(O)cc1)NC(=O)[C@@H](NC(=O)[C@H](CCCNC(=N)N)NC(=O)[C@H](Cc1ccccc1)NC(=O)[C@H](CC(C)C)NC(=O)[C@H](CCCCN)NC(=O)[C@H](CCCNC(=N)N)NC(=O)[C@H](Cc1ccccc1)NC(=O)[C@@H](NC(=O)[C@@H](N)CC(=O)O)[C@@H](C)O)C(C)C)C(=O)N[C@@H](CCCNC(=N)N)C(=O)O

Molecule: FNNFTVSFWLRVPKVSASHLEQY
IC50 (DRB1*0401; [1]): 93 nM | IC50 (DRB1*0802): 581 nM | IC50 (DRB1*0404; [1]): 4540 nM | IC50 (DRB3*0101): 2820 nM | IC50 (DRB1*0301; [1]): > 20000 nM | IC50 (DRB1*0701): 57 nM | IC50 (DRB4*0101): 1680 nM | IC50 (DRB1*1302; [1]): 6370 nM | IC50 (DRB5*0101): 2860 nM | IC50 (DRB1*1101; [1]): 8.3 nM | IC50 (DRB1*0101): 417 nM

IC50 (DRB3*0101; IFNb 15-mer peptides, Table 5D): 1390 nM | IC50 (DRB4*0101; IFNb 15-mer peptides, Table 5D): 19100 nM | IC50 (DRB5*0101; IFNb 15-mer peptides, Table 5D): 4610 nM
Molecule: VLEEKLEKEDFTRGK

IC50 (DRB1*0401): 25 nM | IC50 (DRB1*0405): 48 nM | IC50 (DRB1*1302): 123 nM | IC50 (DRB5*0101): 80 nM | IC50 (DRB1*1101): 5.3 nM | IC50 (DRB1*0101): 68 nM
Molecule: CC(C)C[C@H](NC(=O)[C@H](Cc1ccccc1)NC(=O)[C@H](CC(N)=O)NC(=O)[C@H](CO)NC(=O)[C@H](Cc1ccc(O)cc1)NC(=O)[C@@H](NC(=O)[C@H](CCCNC(=N)N)NC(=O)[C@H](Cc1ccccc1)NC(=O)[C@H](C)NC(=O)[C@H](CCCCN)NC(=O)[C@H](CCCNC(=N)N)NC(=O)[C@H](Cc1ccccc1)NC(=O)[C@@H](NC(=O)[C@@H](N)CC(=O)O)[C@@H](C)O)C(C)C)C(=O)N[C@@H](CCCNC(=N)N)C(=O)O

Molecule: CC(C)C[C@H](NC(=O)[C@@H](NC(=O)[C@H](CC(C)C)NC(=O)[C@@H](NC(=O)[C@H](CCCCN)NC(=O)[C@H](Cc1ccc(O)cc1)NC(=O)CN)C(C)C)C(C)C)C(=O)N[C@@H](CC(N)=O)C(=O)N1CCC[C@H]1C(=O)N[C@@H](CO)C(=O)N[C@H](C(=O)N[C@@H](C)C(=O)N[C@@H](C)C(=O)N[C@H](C(=O)O)[C@@H](C)O)C(C)C
IC50 (DRB3*0101): > 20000 nM
